How the values were obtained:
S. agalactiae 4470 = experiment: In vitro antibacterial activity, MIC (clinical isolates); format: cell-based; conditions: Streptococcus agalactiae; S. agalactiae 4470; 10^6 cells/ml; clinical isolate; read-out: MIC
S. faecalis 49 = experiment: as above; format: cell-based; conditions: Enterococcus faecalis; S. faecalis 49; 10^6 cells/ml; clinical isolate; read-out: MIC
[1] = tested on: Bacteroides fragilis GM 7000; experiment: In vitro antibacterial activity, MIC (standard strain); format: cell-based; conditions: GM7000; Bacteroides fragilis GM 7000; 10^6 cells/ml; standard strain; read-out: MIC
S. aureus Smith = experiment: as above; format: cell-based, Staphylococcus aureus; conditions: Staphylococcus aureus; S. aureus Smith; 10^6 cells/ml; standard strain; read-out: MIC
S. faecalis IID 682 = experiment: as above; format: cell-based; conditions: Enterococcus faecalis, IID682; S. faecalis IID 682; 10^6 cells/ml; standard strain; read-out: MIC
S. faecalis 214 = experiment: In vitro antibacterial activity, MIC (clinical isolates); format: cell-based; conditions: Enterococcus faecalis; S. faecalis 214; 10^6 cells/ml; clinical isolate; read-out: MIC
S. agalactiae 4342 = experiment: as above; format: cell-based; conditions: Streptococcus agalactiae; S. agalactiae 4342; 10^6 cells/ml; clinical isolate; read-out: MIC
S. faecalis 402 = experiment: as above; format: cell-based; conditions: Enterococcus faecalis; S. faecalis 402; 10^6 cells/ml; clinical isolate; read-out: MIC
B. fragilis 0558 = experiment: In vitro antibacterial activity, MIC (standard strain); format: cell-based, Bacteroides fragilis; conditions: Bacteroides fragilis, 0558, B. fragilis 0558; 10^6 cells/ml; standard strain; read-out: MIC
[2] = tested on: Enterobacter cloacae IID 977; experiment: as above; format: cell-based; conditions: Enterobacter cloacae, IID977, Enterobacter cloacae IID 977; 10^6 cells/ml; standard strain; read-out: MIC
S. pyogenes 4340 = experiment: In vitro antibacterial activity, MIC (clinical isolates); format: cell-based; conditions: Streptococcus pyogenes; S. pyogenes 4340; 10^6 cells/ml; clinical isolate; read-out: MIC
S. pneumoniae 2054 = experiment: as above; format: cell-based; conditions: Streptococcus pneumoniae; S. pneumoniae 2054; 10^6 cells/ml; clinical isolate; read-out: MIC
[3] = tested on: Salmonella entritidis IID 604; experiment: In vitro antibacterial activity, MIC (standard strain); format: cell-based; conditions: IID604; Salmonella entritidis IID 604; 10^6 cells/ml; standard strain; read-out: MIC
P. aeruginosa IFO 12689 = experiment: as above; format: cell-based, Pseudomonas aeruginosa; conditions: Pseudomonas aeruginosa, IFO12689; P. aeruginosa IFO 12689; 10^6 cells/ml; standard strain; read-out: MIC
S. pneumoniae 3227 = experiment: In vitro antibacterial activity, MIC (clinical isolates); format: cell-based; conditions: Streptococcus pneumoniae; S. pneumoniae 3227; 10^6 cells/ml; clinical isolate; read-out: MIC
[4] = tested on: Streptococcus pyogenes S-8; experiment: In vitro antibacterial activity, MIC (standard strain); format: cell-based; conditions: S8; Streptococcus pyogenes S-8; 10^6 cells/ml; standard strain; read-out: MIC
Shigella sonnei IID 969 = experiment: as above; format: cell-based; conditions: IID969, 10^6 cells/ml
Procedure: Experiment-1 In vitro antibacterial activity
The in vitro antibacterial activity against gram-positive and gram-negative bacteria has been investivated.
The minimum inhibitory concentration (MIC) was determined in accordance with the method recommended by Japan Society of Chemotherapy.

S. pneumoniae 2950 = experiment: In vitro antibacterial activity, MIC (clinical isolates); format: cell-based; conditions: Streptococcus pneumoniae; S. pneumoniae 2950; 10^6 cells/ml; clinical isolate; read-out: MIC
S. pyogenes 3107 = experiment: as above; format: cell-based; conditions: Streptococcus pyogenes; S. pyogenes 3107; 10^6 cells/ml; clinical isolate; read-out: MIC
[5] = tested on: Morganella morganii IID 602; experiment: In vitro antibacterial activity, MIC (standard strain); format: cell-based; conditions: IID602; Morganella morganii IID 602; 10^6 cells/ml; standard strain; read-out: MIC
E. coli ATCC 10536 = experiment: as above; format: cell-based; conditions: Escherichia coli, ATCC10536; E. coli ATCC 10536; 10^6 cells/ml; standard strain; read-out: MIC
S. agalactiae 4468 = experiment: In vitro antibacterial activity, MIC (clinical isolates); format: cell-based; conditions: Streptococcus agalactiae; S. agalactiae 4468; 10^6 cells/ml; clinical isolate; read-out: MIC
[6] = tested on: Yersinia enterocolitica IID 981; experiment: In vitro antibacterial activity, MIC (standard strain); format: cell-based; conditions: IID981; Yersinia enterocolitica IID 981; 10^6 cells/ml; standard strain; read-out: MIC
S. pyogenes IID 692 = experiment: as above; format: cell-based; conditions: Streptococcus pyogenes, IID692; S. pyogenes IID 692; 10^6 cells/ml; standard strain; read-out: MIC
[7] = tested on: Acinetobacter anitratus IID 876; experiment: as above; format: cell-based; conditions: Acinetobacter calcoaceticus, IID876, Acinetobacter anitratus IID 876; 10^6 cells/ml; standard strain; read-out: MIC
S. marcescens GN 7577 = experiment: as above; format: cell-based; conditions: Serratia marcescens, GN7577; S. marcescens GN 7577; 10^6 cells/ml; standard strain; read-out: MIC
S. pneumoniae IID 552 = experiment: as above; format: cell-based; conditions: Streptococcus pneumoniae, IID552; S. pneumoniae IID 552; 10^6 cells/ml; standard strain; read-out: MIC
S. pneumoniae 15 = experiment: In vitro antibacterial activity, MIC (clinical isolates); format: cell-based; conditions: Streptococcus pneumoniae; S. pneumoniae 15; 10^6 cells/ml; clinical isolate; read-out: MIC
[8] = tested on: Clostridium perfringens KYA 13123; experiment: microbe, parasite or virus in culture; format: cell-based; conditions: KYA13123
[9] = tested on: S. aureus IID 670 (Terajima); experiment: In vitro antibacterial activity, MIC (standard strain); format: cell-based, Staphylococcus aureus; conditions: Staphylococcus aureus, IID670, S. aureus IID 670 (Terajima); 10^6 cells/ml; standard strain; read-out: MIC

Measured: MIC

CCNCC1CCN(c2c(F)cc3c(=O)c(C(=O)O)cn(CC)c3c2F)C1 (stereo not drawn) [Ref.1, 1-Ethyl-7-(3-ethylaminomethyl-1-pyrrolidinyl)-6,8-difluoro-1,4-dihydro-4-oxo-3-quinolinecarboxylic acid, reference compound]
12.5 µg/mL: [1]
1.56 µg/mL: [8]
0.2 µg/mL: S. faecalis IID 682 | [2] | S. pyogenes 4340 | [4] | S. pneumoniae IID 552 | S. pneumoniae 15
0.1 µg/mL: S. aureus Smith | Shigella sonnei IID 969 | S. pyogenes 3107 | E. coli ATCC 10536 | [9]
0.78 µg/mL: S. faecalis 402 | [5] | [7]
6.25 µg/mL: B. fragilis 0558 | P. aeruginosa IFO 12689 | S. marcescens GN 7577
0.39 µg/mL: all other assays above

Reference: patent EP0183129A1, “Quinolonecarboxylic acid derivatives” (KYORIN PHARMACEUTICAL CO., LTD., priority 1984, dated 1986)
